Several values for one entry are separate records, joined by “and”; a condition that tells them apart may be missing. Equal entries are not always repeated. Where two headings read alike, the source gives them in different places.
Columns and labels:
adult L. sigmodontis = test: L. sigmodontis murine model of filariasis (adult worm burden); type: in vivo, Litomosoides sigmodontis in female BALB/c mice; settings: BALB/c mice, 2 mg/kg, QD SC, 5 days, mean vs mean of vehicle controls
[1] = system: O. gutturosa adult male worms; test: O. gutturosa adult worm 5-day motility assay; design: species or system Onchocerca gutturosa; settings: 5 days in vitro culture, top concentration 12.5 μM, read-out: O. gutturosa EC50 (motility inhibition, adult worms)
Description: O. gutturosa adult male worms were obtained postmortem from freshly slaughtered cattle. The worms were dissected from the nuchal ligament connective tissues of naturally infected cattle in Gambia, West Africa; The West Africa Livestock Innovation Centre (WALIC), Banjul, purchased material from local butchers for use in this study.
Using a dissecting microscope and micropipette, microfilariae were then transferred in groups of 5 into each well of a 96-well plate (Fisher Scientific, UK). The adult O. gutturosa worms were transferred individually to each well of a sterile 24-well (2 mL) plate (Fisher Scientific, UK) and maintained for at least 24 h in culture before use. […]
(§1) Only normally active worms were used for the test and all assays were conducted at 37 °C and 5% CO2. […] The activity levels of O. gutturosa adult worms were assessed by the measurement of mean motility scores on a scale of 0 (immotile) to 10 (maximum) every 24 h, terminating at 120 h, using an Olympus inverted microscope. For O. lienalis microfilariae, the motility of the microfilariae was classified using an Olympus inverted microscope as normal (continuous rapid sinuous movement, scored as 3), marginally impaired (slower than normal movement, scored as 2), severely impaired (scored as 1), or immotile (scored as 0) after 120 h of drug exposure. […]

O. gutturosa adult worms = test: O. gutturosa adult worm viability, MTT/formazan colorimetry; design: species or system Onchocerca gutturosa; settings: day 5, vs untreated control
Method: The EC50 values were calculated using a sigmoidal interpolation in Graph Pad Prisme 7 data analysis software. The test drug is considered active when a motility reduction of ≥50% is observed by comparison to the untreated controls. In addition, biochemical evaluation of O. gutturosa adult worm viability was assessed using MTT/formazan colorimetry. The MTT assay was carried out after the last motility reading (120 h). Single intact worms were placed in each well of a 48-well plate (Fisher Scientific, UK) containing 0.5 mL of 0.5 mg/mL MTT (Sigma, UK) in PBS solution, and then incubated for 30 min at 37 °C. The worms were removed, blotted carefully, and individually transferred to separate wells of a 96-well microtiter plate, each containing 200 μL of DMSO to solubilize the formazan. After 1 h the plate was gently agitated to disperse the color evenly and the absorbance value (optical density, OD) of the resulting formazan solution was determined at 490 nm using an absorbance microplate reader (Biotek ELx800, Fisher Scientific, UK). The results are expressed as the mean OD per drug concentration. Inhibition of formazan formation is correlated with worm damage or death.
Supplementary Figure S4. Ex vivo MTT worm viability screening against adult O. gutturosa. O. gutturosa adult worm viability was assessed using MTT/formazan colorimetry on day 5. […]

[2] = system: O. lienalis microfilariae; test: O. lienalis microfilariae 5-day motility assay; design: species or system Onchocerca lienalis; settings: 5 days in vitro culture, top concentration 12.5 μM; read-out: O. lienalis EC50 (motility inhibition, microfilariae)
Method: A single large batch of O. lienalis microfilariae was obtained post mortem from the peri-umbilical skin area of freshly slaughtered, naturally infected cattle in the UK following the procedure described by ([Tagboto and Townson, 1991]) and the references therein. The extracted microfilariae were cryopreserved using a 2-step incubation technique with ethanediol as a cryoprotectant ([Ham et al., 1981]), stored in liquid nitrogen and thawed when required for immediate use.
Using a dissecting microscope and micropipette, microfilariae were then transferred in groups of 5 into each well of a 96-well plate (Fisher Scientific, UK). […]
as §1
The EC50 values were calculated using a sigmoidal interpolation in Graph Pad Prisme 7 data analysis software. […]

| SMILES | Reduction Adult Worms (adult L. sigmodontis) | EC50 ([1]; listed as Imiticide) [nM] | EC50 [1] [nM] | O. gutturosa MTT % reduction at 12.5 μM (O. gutturosa adult worms) [%] | EC50 [2] [nM] |
| --- | --- | --- | --- | --- | --- |
| COC(=O)Nc1nc2cc(C(=O)c3ccc(F)cc3)ccc2[nH]1 [Flubendazole, flubendazole] | 98.4% (P = 0.024) and 100% (P = 0.007) |  |  |  |  |
| Cl.Cl.NCCS[As](SCCN)c1ccc(Nc2nc(N)nc(N)n2)cc1 [Immiticide, melarsomine dihydrochloride] |  | 600 | 590 | 96.3 | 800 |

Source: publication PMC9278491, “Filarial nematode phenotypic screening cascade to identify compounds with anti-parasitic activity for drug discovery optimization” (International Journal for Parasitology: Drugs and Drug …, 2022)
